Assays:
[1] = tested on: ID188 patient-derived PDAC 2D line (pre-FOLFIRINOX); test: normalised area under dose-response curve (viability relative to DMSO, 7 doses up to 10 µM) (fraction (AUC)); higher = less sensitive (more viability retained); conditions: 72 h; top dose: 10 µM
Procedure: (§1)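 Patient-derived 2D PDAC cells (ID188 pre-FOLFIRINOX, passage 5+27; ID211 post-FOLFIRINOX, passage 9+11), 1,500-3,000 cells/well in 96-well plates, were treated with a 415-compound Selleck library in seven concentrations (3-fold dilution series, top 10 µM) for 72 h. Viability was read by CellTiter-Glo ATP luminescence, normalised to the DMSO control, and the area under the dose-response curve was computed with the GRmetrics R package; a lower AUC means higher sensitivity.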

[2] = tested on: ID211 patient-derived PDAC 2D line (post-FOLFIRINOX); test: as above; conditions: 72 h; top dose: 10 µM
Procedure: as §1

SMILES | normalised area under dose-response curve [1] | normalised area under dose-response curve [2]
CC(=O)N1c2ccc(-c3ccc(C(=O)O)cc3)cc2[C@H](Nc2ccc(Cl)cc2)C[C@@H]1C | 0.815 | 0.732
CC(C)(C#N)c1ccc(N2C(=O)OCc3cnc4ccc(-c5cnc6ccccc6c5)cc4c32)cc1 | 0.825 | 0.804
CC(C)(C)c1nc(-c2cccc(NS(=O)(=O)c3c(F)cccc3F)c2F)c(-c2ccnc(N)n2)s1 | 0.738 | 0.932
CC(C)N(CCCNC(=O)Nc1ccc(C(C)(C)C)cc1)C[C@H]1O[C@@H](n2ccc3c(N)ncnc32)[C@H](O)[C@@H]1O | 0.952 | 0.899
CCC(CC)CC1(C(=O)Nc2ccccc2SC(=O)C(C)C)CCCCC1 | 0.929 | 0.859
CCc1cc(Nc2nccc(-c3c(-c4ccc(OC)c(C(=O)Nc5c(F)cccc5F)c4)nc4ccccn34)n2)c(OC)cc1N1CCC(N2CCN(S(C)(=O)=O)CC2)CC1 | 0.94 | 0.829
CCc1cnn2c(NCc3ccc[n+]([O-])c3)cc(N3CCCC[C@H]3CCO)nc12 | 0.426 | 0.161
CNC(=O)c1ccc(Nc2ncc(C(F)(F)F)c(NCc3nccnc3N(C)S(C)(=O)=O)n2)cc1 | 0.897 | 0.761
CNCCN(C)Cc1c[nH]nc1-c1ccc(O[C@H]2C[C@H](OCCC3CCOCC3)C2)cc1 | 0.779 | 0.92
CNc1nc(-c2ccc3c(N)n[nH]c3c2)cc(N2C[C@@H](C(=O)NC3CCCCC3)CC[C@H]2C)n1 | 0.869 | 0.71
CONC(=O)c1ccccc1Nc1cc(Nc2cc(C)nn2C(C)C)ncc1Cl | 0.812 | 0.844
CO[C@@H](C(=O)N1Cc2[nH]nc(NC(=O)c3ccc(N4CCN(C)CC4)cc3)c2C1)c1ccccc1 | 0.766 | 0.611
COc1cc(OC)cc(N(CCNC(C)C)c2ccc3ncc(-c4cnn(C)c4)nc3c2)c1 | 0.927 | 0.893
COc1cc2c(cc1OC)CN(CCc1ccc(NC(=O)c3cccc4c(=O)c5cccc(OC)c5[nH]c34)cc1)CC2 | 1.02 | 0.682
C[C@@H](Oc1cc(-c2cnn(C3CCNCC3)c2)cnc1N)c1c(Cl)ccc(F)c1Cl | 0.772 | 0.799
C[C@H](NC(=O)CCC(F)(F)F)C(=O)N[C@@H]1C(=O)N(CCO)c2ncccc2-c2ccccc21 | 0.939 | 0.744
C[C@H](NC(=O)Cc1cc(F)cc(F)c1)C(=O)N[C@@H]1C(=O)N(C)c2ccccc2-c2ccccc21 | 0.89 | 0.782
Cc1cc(C)c(CNC(=O)c2cc(-c3ccc(CN4CCOCC4)cc3)cc3c2cnn3C2CCCC2)c(=O)[nH]1 | 0.896 | 0.812
Cc1cccc(-c2nn3c(c2-c2ccnc4ccc(C(N)=O)cc24)CCC3)n1 | 0.968 | 0.965
Cn1cc(-c2ccc3c(c2)CCN3C(=O)Cc2cccc(C(F)(F)F)c2)c2c(N)ncnc21 | 0.915 | 0.852
Cn1cc(C2=C(c3cn(C4CCN(Cc5ccccn5)CC4)c4ccccc34)C(=O)NC2=O)c2ccccc21 | 0.917 | 0.933
NS(=O)(=O)NCCNc1nonc1/C(=N/O)Nc1ccc(F)c(Br)c1 | 0.924 | 0.909
Nc1[nH]nc2nnc(-c3c(-c4ccccc4)nn4ccccc34)cc12 | 0.847 | 0.849

— the supplement of paper PMC8988213
